ChEMBL document CHEMBL3525955, “Glucuronidation of the red clover isoflavone irilone by liver microsomes from different species and human UDP-glucuronosyltransferases” (Drug Metab Dispos, 2011)

Experiments:
Format in all cases: ADME
[1] = target: T1, UDP-glucuronosyltransferase 1A8 (Homo sapiens, UniProt Q9HAW9); assay: Drug level assessed as human recombinant UGT1A8-mediated glucuronidation treated with 25 uM irilone incubated for 5 mins prior to UDPGA addition measured after 90 mins by HPLC-DAD analysis; conditions: recombinant enzyme, 1.5 h
T1 sequence (Q9HAW9 whole entry): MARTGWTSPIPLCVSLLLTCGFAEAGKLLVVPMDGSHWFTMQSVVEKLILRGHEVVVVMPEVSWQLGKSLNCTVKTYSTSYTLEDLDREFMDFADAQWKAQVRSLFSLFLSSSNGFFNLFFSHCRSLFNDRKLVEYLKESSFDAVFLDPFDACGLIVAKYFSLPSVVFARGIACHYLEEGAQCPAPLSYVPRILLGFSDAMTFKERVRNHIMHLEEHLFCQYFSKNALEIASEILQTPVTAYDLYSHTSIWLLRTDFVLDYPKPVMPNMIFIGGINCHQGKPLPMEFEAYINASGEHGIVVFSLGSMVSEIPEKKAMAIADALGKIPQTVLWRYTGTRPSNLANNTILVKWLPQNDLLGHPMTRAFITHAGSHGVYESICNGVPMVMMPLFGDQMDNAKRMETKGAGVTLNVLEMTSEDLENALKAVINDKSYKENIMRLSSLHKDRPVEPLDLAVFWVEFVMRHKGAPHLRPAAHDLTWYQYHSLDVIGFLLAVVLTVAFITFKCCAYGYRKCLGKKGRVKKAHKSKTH

[2] = target: T2, UDP-glucuronosyltransferase 1A10 (Homo sapiens, UniProt Q9HAW8); assay: Drug level assessed as human recombinant UGT1A10-mediated glucuronidation treated with irilone incubated for 5 mins prior to UDPGA addition measured after 90 mins by HPLC-DAD analysis; conditions: recombinant enzyme, 1.5 h
T2 sequence (Q9HAW8 whole entry): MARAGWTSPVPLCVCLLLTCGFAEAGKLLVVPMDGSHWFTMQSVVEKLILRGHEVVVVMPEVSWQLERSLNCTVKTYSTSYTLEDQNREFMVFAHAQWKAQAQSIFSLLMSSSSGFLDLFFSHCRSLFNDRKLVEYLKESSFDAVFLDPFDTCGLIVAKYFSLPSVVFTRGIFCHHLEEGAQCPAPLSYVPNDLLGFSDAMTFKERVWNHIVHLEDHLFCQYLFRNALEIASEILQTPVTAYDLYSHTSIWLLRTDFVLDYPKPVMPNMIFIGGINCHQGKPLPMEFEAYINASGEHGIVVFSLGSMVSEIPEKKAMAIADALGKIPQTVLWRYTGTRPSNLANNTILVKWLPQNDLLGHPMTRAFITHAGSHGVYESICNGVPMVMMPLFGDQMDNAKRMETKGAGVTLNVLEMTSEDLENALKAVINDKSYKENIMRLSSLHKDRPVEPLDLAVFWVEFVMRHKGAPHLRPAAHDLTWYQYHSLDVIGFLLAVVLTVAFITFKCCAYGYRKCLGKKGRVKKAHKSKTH

[3] = target: T3, UDP-glucuronosyltransferase 1A1 (Homo sapiens, UniProt P22309); assay: Drug level assessed as human recombinant UGT1A1-mediated glucuronidation treated with 25 uM irilone incubated for 5 mins prior to UDPGA addition measured after 90 mins by HPLC-DAD analysis; conditions: recombinant enzyme, 1.5 h
T3 sequence (P22309 whole entry): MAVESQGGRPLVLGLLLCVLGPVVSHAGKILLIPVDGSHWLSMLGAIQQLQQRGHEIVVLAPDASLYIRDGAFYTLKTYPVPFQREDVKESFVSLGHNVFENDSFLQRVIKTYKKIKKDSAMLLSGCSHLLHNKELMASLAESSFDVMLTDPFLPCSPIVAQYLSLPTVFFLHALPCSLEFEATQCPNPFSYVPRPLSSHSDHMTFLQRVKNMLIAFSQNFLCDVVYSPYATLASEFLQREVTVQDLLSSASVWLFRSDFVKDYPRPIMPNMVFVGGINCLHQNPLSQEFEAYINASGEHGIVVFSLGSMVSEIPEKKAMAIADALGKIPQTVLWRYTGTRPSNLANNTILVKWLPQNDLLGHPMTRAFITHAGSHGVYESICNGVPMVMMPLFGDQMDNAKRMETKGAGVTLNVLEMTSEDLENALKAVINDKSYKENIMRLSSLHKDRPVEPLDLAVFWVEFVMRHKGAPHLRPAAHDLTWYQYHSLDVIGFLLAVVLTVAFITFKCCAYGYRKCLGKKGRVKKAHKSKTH

[4] = target: T4, UDP-glucuronosyltransferase 1A7 (Homo sapiens, UniProt Q9HAW7); assay: Drug level assessed as human recombinant UGT1A7-mediated glucuronidation treated with 25 uM irilone incubated for 5 mins prior to UDPGA addition measured after 90 mins by HPLC-DAD analysis; conditions: recombinant enzyme, 1.5 h
T4 sequence (Q9HAW7 whole entry): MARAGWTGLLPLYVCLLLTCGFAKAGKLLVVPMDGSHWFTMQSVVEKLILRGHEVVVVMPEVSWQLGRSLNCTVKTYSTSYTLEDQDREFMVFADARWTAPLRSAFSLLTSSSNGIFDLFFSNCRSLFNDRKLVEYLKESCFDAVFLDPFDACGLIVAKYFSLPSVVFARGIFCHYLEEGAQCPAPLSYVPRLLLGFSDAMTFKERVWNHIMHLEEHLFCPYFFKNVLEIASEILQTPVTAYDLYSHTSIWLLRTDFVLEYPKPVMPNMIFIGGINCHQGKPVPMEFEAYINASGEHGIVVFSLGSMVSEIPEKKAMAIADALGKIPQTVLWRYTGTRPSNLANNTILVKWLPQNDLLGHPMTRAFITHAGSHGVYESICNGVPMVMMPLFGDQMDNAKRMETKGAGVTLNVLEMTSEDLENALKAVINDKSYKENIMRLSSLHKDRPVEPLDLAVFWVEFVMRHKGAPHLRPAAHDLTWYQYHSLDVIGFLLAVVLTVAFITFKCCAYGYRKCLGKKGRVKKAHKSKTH

[5] = target: T5, UDP-glucuronosyltransferase 1A9 (Homo sapiens, UniProt O60656); assay: Activity of human recombinant UGT1A9 assessed as […]-O-4'-monoglucuronide formation incubated for 5 mins prior to UDPGA addition measured after 90 mins by HPLC-DAD analysis; conditions: recombinant enzyme, 1.5 h
T5 sequence (O60656 whole entry): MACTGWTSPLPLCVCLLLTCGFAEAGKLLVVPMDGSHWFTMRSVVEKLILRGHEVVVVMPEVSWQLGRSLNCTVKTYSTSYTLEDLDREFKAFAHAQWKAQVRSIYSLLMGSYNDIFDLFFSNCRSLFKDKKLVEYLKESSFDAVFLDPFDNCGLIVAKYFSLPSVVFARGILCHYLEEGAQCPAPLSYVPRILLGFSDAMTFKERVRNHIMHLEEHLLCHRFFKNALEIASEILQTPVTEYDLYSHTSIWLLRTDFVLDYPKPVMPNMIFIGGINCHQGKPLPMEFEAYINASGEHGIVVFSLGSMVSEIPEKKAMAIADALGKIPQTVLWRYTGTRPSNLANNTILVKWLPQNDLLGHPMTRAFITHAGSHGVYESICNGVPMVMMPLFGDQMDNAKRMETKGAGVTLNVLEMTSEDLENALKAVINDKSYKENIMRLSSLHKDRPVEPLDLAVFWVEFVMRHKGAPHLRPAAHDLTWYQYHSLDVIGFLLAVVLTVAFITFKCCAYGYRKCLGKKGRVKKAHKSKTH

[6] = target: T2, UDP-glucuronosyltransferase 1A10; assay: Activity of human recombinant UGT1A10 assessed as […]-O-4'-monoglucuronide formation incubated for 5 mins prior to UDPGA addition measured after 90 mins by HPLC-DAD analysis; conditions: recombinant enzyme, 1.5 h
[7] = target: T5, UDP-glucuronosyltransferase 1A9; assay: Activity of human recombinant UGT1A9 at 100 uM; conditions: recombinant enzyme
[8] = target: T2, UDP-glucuronosyltransferase 1A10; assay: Activity of human recombinant UGT1A10 at 100 uM; conditions: recombinant enzyme
[9] = target: T5, UDP-glucuronosyltransferase 1A9; assay: Drug level assessed as human recombinant UGT1A9-mediated glucuronidation formation treated with irilone incubated for 5 mins prior to UDPGA addition measured after 90 mins by HPLC-DAD analysis; conditions: recombinant enzyme, 1.5 h

Compound	Drug metabolism [1]	Drug metabolism [3]	Drug metabolism [4]	Activity [7] [nmol/mg/min]	Activity [8] [nmol/mg/min]	other results
O=C(O)[C@H]1O[C@@H](Oc2ccc(-c3coc4cc5c(c(O)c4c3=O)OCO5)cc2)[C@H](O)[C@@H](O)[C@@H]1O	metabolite_detected	metabolite_detected	metabolite_detected			Drug metabolism [2]: metabolite_detected
COc1c2c(cc3occ(-c4ccc(O)cc4)c(=O)c13)OCO2 [IRISOLONE]						Drug metabolism [5]: metabolite_not_detected; Drug metabolism [6]: metabolite_detected
O=c1c(-c2ccc(O)cc2)coc2cc(O)cc(O)c12 [GENISTEIN]				0.5	0.5	
O=C(O)[C@H]1O[C@@H](Oc2c3c(cc4occ(-c5ccc(O)cc5)c(=O)c24)OCO3)[C@H](O)[C@@H](O)[C@@H]1O	metabolite_detected	metabolite_detected	metabolite_detected			Drug metabolism [9]: metabolite_detected
O=c1c(-c2ccc(O)cc2)coc2cc(O)ccc12 [DAIDZEIN]				0.5	0.5	
